Patent US20050124665A1, “Pharmaceutical compositions” (priority 2001, published 2005)

Columns and labels:
Sendai virus = assay: Effect on the replication of Sendai virus (virus yield by HAU titration in 37RC cells); format: cell-based; conditions: Respirovirus muris, in Primates; at 24 hours after infection; monkey kidney 37RC cells infected with SV (5 HAU/10^5 cells); virus yield in supernatant by HAU titration; read-out: ID50 (the 50% inhibitory dose/concentration)
Experimental: Methods: Monkey kidney 37RC cells were grown at 37° C. under the conditions described in Example 6 for T cells. The parainfluenza Sendai virus (SV) was grown in the allantoic cavity of 10-day-old embroynated eggs. Viral titre was expressed in haemagglutinating units (HAU) per ml; haemagglutin titration was done according to standard procedures using human 0 Rh+ erythrocytes, as described in C. Amici et al. (J. Virol. 68: 6890-6899, 1994). Confluent monolayers of 37RC cells were infected with SV virus (5 HAU/10^5 cells) for 1 h at 37° C., and then treated with different concentrations of test compounds. Virus yield at 24 hours after infection was determined in the supernatant of infected cells by HAU titration. The results from representative experiments are shown for CTC-73, 74, 83, 84 and 85 (as identified above) in FIGS. 1a, 2a, 3a, 4a and 5a, respectively.

HSF1 = biological target: T1, HSF1 (Homo sapiens, UniProt Q00613); conditions: cited from earlier work
T1 sequence (Q00613 1-529): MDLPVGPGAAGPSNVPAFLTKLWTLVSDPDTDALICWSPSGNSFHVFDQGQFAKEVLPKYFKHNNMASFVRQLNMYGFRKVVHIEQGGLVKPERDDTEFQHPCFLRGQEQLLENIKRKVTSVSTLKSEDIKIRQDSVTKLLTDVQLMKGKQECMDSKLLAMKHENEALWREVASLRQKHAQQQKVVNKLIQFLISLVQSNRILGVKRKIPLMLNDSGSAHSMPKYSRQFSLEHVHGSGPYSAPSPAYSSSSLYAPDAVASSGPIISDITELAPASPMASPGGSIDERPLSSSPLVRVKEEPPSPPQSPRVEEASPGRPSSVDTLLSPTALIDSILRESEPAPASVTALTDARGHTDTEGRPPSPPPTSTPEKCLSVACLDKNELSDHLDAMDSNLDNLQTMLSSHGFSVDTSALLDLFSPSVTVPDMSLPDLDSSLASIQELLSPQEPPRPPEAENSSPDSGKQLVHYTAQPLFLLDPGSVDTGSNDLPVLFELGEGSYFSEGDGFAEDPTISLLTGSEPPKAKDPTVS

NF-κB = conditions: at the same concentration (125-500 μM); cited from earlier work

CCCC/C=C\CC1CC=CC1=O (stereo not drawn) [CTC-74, ((Z)-5-Hept-2-enyl)-cyclopent-2-enone]
IC50 (Sendai virus): 1 µM

O=C1C=CCC1 [cyclopent-2-en-1-one]
Concentration able to activate HSF1 and trigger synthesis of HSP70 (HSF1): 125 to 500 µM | Block of NF-κB activation (NF-κB): able to block NF-κB activation

CCCCCCCCC/C=C\CC1CC=CC1=O (stereo not drawn) [CTC-84, ((Z)-5-Dodec-2-enyl)-cyclopent-2-enone]
IC50 (Sendai virus): 7 µM

CCCCCC/C=C\CC1CC=CC1=O (stereo not drawn) [CTC-83, ((Z)-5-Non-2-enyl)-cyclopent-2-enone]
IC50 (Sendai virus): 10 µM

CCCCCCCCC/C=C/CC1CC=CC1=O (stereo not drawn) [CTC-85, ((E)-5-Dodec-2-enyl)-cyclopent-2-enone]
IC50 (Sendai virus): 10 µM
